The results in this text go back to patent US20260158017A1, “KIF18A INHIBITOR” (WIGEN BIOMEDICINE TECHNOLOGY (SHANGHAI) CO., LTD., priority 2021, published 2026).

SMILES strings stand for the structures. Some results are limits rather than exact numbers.

T1 sequence (Q8NI77 1-467): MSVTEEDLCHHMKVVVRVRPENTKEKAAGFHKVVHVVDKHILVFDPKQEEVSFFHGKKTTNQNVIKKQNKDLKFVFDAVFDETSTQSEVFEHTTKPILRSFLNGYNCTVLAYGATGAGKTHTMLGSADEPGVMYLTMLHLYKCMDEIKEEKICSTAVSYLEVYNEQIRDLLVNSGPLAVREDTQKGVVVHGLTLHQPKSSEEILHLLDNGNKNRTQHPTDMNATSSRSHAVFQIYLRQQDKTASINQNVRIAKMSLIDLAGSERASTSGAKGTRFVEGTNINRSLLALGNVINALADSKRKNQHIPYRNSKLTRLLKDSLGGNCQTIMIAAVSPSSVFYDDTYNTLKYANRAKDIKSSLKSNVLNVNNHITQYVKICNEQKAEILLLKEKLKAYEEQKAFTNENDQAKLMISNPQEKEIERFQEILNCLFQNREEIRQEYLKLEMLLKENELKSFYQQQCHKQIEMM
T1 sequence (P02550 whole entry partner): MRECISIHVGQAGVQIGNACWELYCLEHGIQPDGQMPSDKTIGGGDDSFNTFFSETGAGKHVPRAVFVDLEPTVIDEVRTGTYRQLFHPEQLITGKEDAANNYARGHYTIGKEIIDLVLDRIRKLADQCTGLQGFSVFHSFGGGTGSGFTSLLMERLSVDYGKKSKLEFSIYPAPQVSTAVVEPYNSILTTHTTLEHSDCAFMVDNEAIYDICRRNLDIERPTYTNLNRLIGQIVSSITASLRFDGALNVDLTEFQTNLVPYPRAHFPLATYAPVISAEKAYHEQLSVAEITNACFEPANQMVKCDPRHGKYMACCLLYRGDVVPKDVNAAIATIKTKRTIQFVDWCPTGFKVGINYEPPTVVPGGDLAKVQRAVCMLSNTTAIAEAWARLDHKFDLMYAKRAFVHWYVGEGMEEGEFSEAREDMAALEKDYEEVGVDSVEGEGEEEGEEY
T1 sequence (P02554 whole entry partner): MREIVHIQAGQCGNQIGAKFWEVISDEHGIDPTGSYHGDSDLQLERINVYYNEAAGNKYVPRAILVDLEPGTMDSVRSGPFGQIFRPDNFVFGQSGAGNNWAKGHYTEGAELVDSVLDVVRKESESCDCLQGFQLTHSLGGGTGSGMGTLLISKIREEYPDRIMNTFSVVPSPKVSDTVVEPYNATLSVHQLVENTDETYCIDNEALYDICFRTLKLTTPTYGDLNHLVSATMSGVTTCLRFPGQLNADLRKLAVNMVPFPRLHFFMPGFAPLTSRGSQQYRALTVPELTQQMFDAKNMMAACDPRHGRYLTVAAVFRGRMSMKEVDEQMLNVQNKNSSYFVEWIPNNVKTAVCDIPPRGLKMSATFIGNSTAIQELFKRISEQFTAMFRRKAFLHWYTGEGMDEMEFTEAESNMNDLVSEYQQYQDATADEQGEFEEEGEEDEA

The assay has as its target T1, Recombinant human KIF18A (1-467His-tagged) protein (Homo sapiens, UniProt Q8NI77).
T1 construct: Recombinant human KIF18A (1-467His-tagged) protein; His; made in house
Description: KIF18A enzyme assay (microtubule-stimulated ATPase activity, ADP-Glo). The class given is biochemical. Conditions: 30 nM KIF18A, 75 μM ATP, 30 μg/mL pig microtubules; read-out: Inhibitory activity against KIF18A IC50. As for the experimental part: In Vitro Assay of the Compounds of the Present Invention for Inhibiting Enzymatic Activity of KIF18A
KIF18A enzyme assay: The enzymatic activity of KIF18A after treatment with the compounds was measured by an assay of microtubule-stimulated ATPase activity. ADP generated from the ATPase reaction was measured in this assay. The compounds were serially diluted 2-fold in DMSO over a range of 22 concentration points. […] Concentrations of KIF18A protein, microtubules, and ATP in the reaction were optimized for a standardized homogenous enzyme assay using an ADP-Glo kinase/ATPase assay kit. A reaction buffer [(15 mM Tris, pH 7.5), 10 mM MgCl2, 0.01% PluronicF-68, 1 μM paclitaxel, and 30 μg/mL pig microtubules] was prepared. […] The resulting reaction mixture was incubated at room temperature for another 15 min. 5 μL of ADP-Glo reagent and 2.5 μL of the reaction mixture were mixed and the resulting mixture was incubated at room temperature for 40 min. 10 μL of ADP-Glo detection reagent was added and the mixture was incubated at room temperature for 40 min. Luminescence was read using a microplate reader and compared with that of the DMSO group, and then the inhibition percentages and IC50 values of the compounds were calculated.
Consider `C[C@@H]1CN(c2cc(NC(=O)c3ccc(NS(=O)(=O)CCO)cc3N3CCC4(CC3)CC4)ccc2[N+](=O)[O-])CCO1` [Compound 2], for which the half-inhibitory concentration (IC50) is no more than 100 nM.
The figure for `O=C(Nc1ccc([N+](=O)[O-])c(OCCC(F)(F)F)c1)c1ccc(NS(=O)(=O)CCO)cc1N1CCC2(CC1)CC2` [Compound 5] is no more than 100 nM; for `CC1(F)CCN(c2cc(NC(=O)c3ccc(NS(=O)(=O)CCO)cc3N3CCC4(CC3)CC4)ccc2[N+](=O)[O-])C1` (stereo not drawn) [Compound 8] it is no more than 100 nM; for `O=C(Nc1ccc([N+](=O)[O-])c(N2CCC(F)CC2)c1)c1ccc(NS(=O)(=O)CCO)cc1N1CCC2(CC1)CC2` [Compound 9] it is no more than 100 nM.
Turning to `O=C(Nc1ccc([N+](=O)[O-])c(N2CC3CC3C2)c1)c1ccc(NS(=O)(=O)CCO)cc1N1CCC2(CC1)CC2` (stereo not drawn) [Compound 10], the IC50 is no more than 100 nM.
The figure for `CC(C)(CO)Nc1cc(NC(=O)c2ccc(NS(=O)(=O)CCO)cc2N2CCC3(CC2)CC3)ccc1[N+](=O)[O-]` [Compound 11] is no more than 100 nM.
For the molecule `O=C(Nc1ccc([N+](=O)[O-])c(N2CCOCC2)c1)c1ccc(NS(=O)(=O)CCO)cc1N1CCC2(CC1)CC2` [Compound 12], the IC50 was no more than 100 nM.
The figure for `C[C@@H](CO)S(=O)(=O)Nc1ccc(C(=O)Nc2ccc([N+](=O)[O-])c(N3CCC(F)(F)CC3)c2)c(N2CCC3(CC2)CC3)c1` [Compound 13] is no more than 100 nM; for `C[C@H](CO)S(=O)(=O)Nc1ccc(C(=O)Nc2ccc([N+](=O)[O-])c(N3CCC(F)(F)CC3)c2)c(N2CCC3(CC2)CC3)c1` [Compound 14] it is no more than 100 nM.
As to `C[C@@H]1CN(c2cc(NC(=O)c3ccc(NS(=O)(=O)[C@@H](C)CO)cc3N3CCC4(CC3)CC4)ccc2[N+](=O)[O-])CCO1` [Compound 15], the IC50 is no more than 100 nM.
As to `C[C@@H]1CN(c2cc(NC(=O)c3ccc(NS(=O)(=O)[C@H](C)CO)cc3N3CCC4(CC3)CC4)ccc2[N+](=O)[O-])CCO1` [Compound 16], the IC50 is no more than 100 nM.
In the case of `O=C(Nc1ccc([N+](=O)[O-])c(N2CCC(F)(F)CC2)c1)c1ccc(S(=O)(=O)NCCO)cc1N1CCC2(CC1)CC2` [Compound 17], the IC50 was no more than 100 nM.
On to `C[C@@H]1CN(c2cc(NC(=O)c3ccc(S(=O)(=O)NCCO)cc3N3CCC4(CC3)CC4)ccc2[N+](=O)[O-])CCO1` [Compound 18], for which the IC50 was no more than 100 nM.
Turning to `C[C@H]1CN(c2cc(NC(=O)c3ccc(S(=O)(=O)NCCO)cc3N3CCC4(CC3)CC4)ccc2[N+](=O)[O-])CCO1` [Compound 19], the IC50 was no more than 100 nM.
The figure for `O=C(Nc1ccc([N+](=O)[O-])c(N2CC(F)(F)C2)c1)c1ccc(S(=O)(=O)NCCO)cc1N1CCC2(CC1)CC2` [Compound 20] is no more than 100 nM; for `O=C(Nc1ccc([N+](=O)[O-])c(OCCC(F)(F)F)c1)c1ccc(S(=O)(=O)NCCO)cc1N1CCC2(CC1)CC2` [Compound 21] it is no more than 100 nM; for `O=C(Nc1ccc([N+](=O)[O-])c(N2CCC3(CC3)C2)c1)c1ccc(S(=O)(=O)NCCO)cc1N1CCC2(CC1)CC2` [Compound 22] it is no more than 100 nM.
The result for `O=C(Nc1ccc([N+](=O)[O-])c(OC2CCC2)c1)c1ccc(S(=O)(=O)NCCO)cc1N1CCC2(CC1)CC2` [Compound 23] reads no more than 100 nM; that for `CC1(F)CCN(c2cc(NC(=O)c3ccc(S(=O)(=O)NCCO)cc3N3CCC4(CC3)CC4)ccc2[N+](=O)[O-])C1` (stereo not drawn) [Compound 24], no more than 100 nM.
The result for `O=C(Nc1ccc([N+](=O)[O-])c(N2CCC(F)CC2)c1)c1ccc(S(=O)(=O)NCCO)cc1N1CCC2(CC1)CC2` [Compound 25] reads no more than 100 nM; that for `O=C(Nc1ccc([N+](=O)[O-])c(N2CC3CC3C2)c1)c1ccc(S(=O)(=O)NCCO)cc1N1CCC2(CC1)CC2` (stereo not drawn) [Compound 26], no more than 100 nM.
For `CC(C)(CO)Nc1cc(NC(=O)c2ccc(S(=O)(=O)NCCO)cc2N2CCC3(CC2)CC3)ccc1[N+](=O)[O-]` [Compound 27], the IC50 is no more than 100 nM.
As to `O=C(Nc1ccc([N+](=O)[O-])c(N2CCOCC2)c1)c1ccc(S(=O)(=O)NCCO)cc1N1CCC2(CC1)CC2` [Compound 28], the IC50 was no more than 100 nM.
As for `C[C@@H](CO)NS(=O)(=O)c1ccc(C(=O)Nc2ccc([N+](=O)[O-])c(N3CCC(F)(F)CC3)c2)c(N2CCC3(CC2)CC3)c1` [Compound 29], the 50% inhibitory concentration (IC50) is no more than 100 nM.
`C[C@H](CO)NS(=O)(=O)c1ccc(C(=O)Nc2ccc([N+](=O)[O-])c(N3CCC(F)(F)CC3)c2)c(N2CCC3(CC2)CC3)c1` [Compound 30]: the IC50 was no more than 100 nM.
The figure for `C[C@@H]1CN(c2cc(NC(=O)c3ccc(S(=O)(=O)N[C@@H](C)CO)cc3N3CCC4(CC3)CC4)ccc2[N+](=O)[O-])CCO1` [Compound 31] is no more than 100 nM; for `C[C@H](CO)NS(=O)(=O)c1ccc(C(=O)Nc2ccc([N+](=O)[O-])c(N3CCO[C@H](C)C3)c2)c(N2CCC3(CC2)CC3)c1` [Compound 32] it is no more than 100 nM.
The result for `O=C(Nc1ccc(NS(=O)(=O)CCO)cc1N1CCC2(CC1)CC2)c1ccc([N+](=O)[O-])c(N2CCC(F)(F)CC2)c1` [Compound 33] reads no more than 100 nM; that for `C[C@@H]1CN(c2cc(C(=O)Nc3ccc(NS(=O)(=O)CCO)cc3N3CCC4(CC3)CC4)ccc2[N+](=O)[O-])CCO1` [Compound 34], no more than 100 nM; that for `C[C@H]1CN(c2cc(C(=O)Nc3ccc(NS(=O)(=O)CCO)cc3N3CCC4(CC3)CC4)ccc2[N+](=O)[O-])CCO1` [Compound 35], 100 to 500 nM.
Turning to `O=C(Nc1ccc(NS(=O)(=O)CCO)cc1N1CCC2(CC1)CC2)c1ccc([N+](=O)[O-])c(N2CC(F)(F)C2)c1` [Compound 36], the IC50 is no more than 100 nM.
For `O=C(Nc1ccc(NS(=O)(=O)CCO)cc1N1CCC2(CC1)CC2)c1ccc([N+](=O)[O-])c(OCCC(F)(F)F)c1` [Compound 37], the IC50 is no more than 100 nM.
The result for `O=C(Nc1ccc(NS(=O)(=O)CCO)cc1N1CCC2(CC1)CC2)c1ccc([N+](=O)[O-])c(N2CCC3(CC3)C2)c1` [Compound 38] reads no more than 100 nM; that for `O=C(Nc1ccc(NS(=O)(=O)CCO)cc1N1CCC2(CC1)CC2)c1ccc([N+](=O)[O-])c(OC2CCC2)c1` [Compound 39], no more than 100 nM.
The figure for `CC1(F)CCN(c2cc(C(=O)Nc3ccc(NS(=O)(=O)CCO)cc3N3CCC4(CC3)CC4)ccc2[N+](=O)[O-])C1` (stereo not drawn) [Compound 40] is no more than 100 nM.
The result for `O=C(Nc1ccc(NS(=O)(=O)CCO)cc1N1CCC2(CC1)CC2)c1ccc([N+](=O)[O-])c(N2CCC(F)CC2)c1` [Compound 41] reads no more than 100 nM.
For the molecule `O=C(Nc1ccc(NS(=O)(=O)CCO)cc1N1CCC2(CC1)CC2)c1ccc([N+](=O)[O-])c(N2CC3CC3C2)c1` (stereo not drawn) [Compound 42], the IC50 is no more than 100 nM.
The figure for `CC(C)(CO)Nc1cc(C(=O)Nc2ccc(NS(=O)(=O)CCO)cc2N2CCC3(CC2)CC3)ccc1[N+](=O)[O-]` [Compound 43] is no more than 100 nM; for `O=C(Nc1ccc(NS(=O)(=O)CCO)cc1N1CCC2(CC1)CC2)c1ccc([N+](=O)[O-])c(N2CCOCC2)c1` [Compound 44] it is no more than 100 nM.
The figure for `C[C@@H](CO)S(=O)(=O)Nc1ccc(NC(=O)c2ccc([N+](=O)[O-])c(N3CCC(F)(F)CC3)c2)c(N2CCC3(CC2)CC3)c1` [Compound 45] is 100 to 500 nM.
The figure for `C[C@H](CO)S(=O)(=O)Nc1ccc(NC(=O)c2ccc([N+](=O)[O-])c(N3CCC(F)(F)CC3)c2)c(N2CCC3(CC2)CC3)c1` [Compound 46] is 100 to 500 nM; for `C[C@@H]1CN(c2cc(C(=O)Nc3ccc(NS(=O)(=O)[C@@H](C)CO)cc3N3CCC4(CC3)CC4)ccc2[N+](=O)[O-])CCO1` [Compound 47] it is 100 to 500 nM.
`C[C@@H]1CN(c2cc(C(=O)Nc3ccc(NS(=O)(=O)[C@H](C)CO)cc3N3CCC4(CC3)CC4)ccc2[N+](=O)[O-])CCO1` [Compound 48]: the IC50 was 100 to 500 nM.
Consider `O=C(Nc1ccc(S(=O)(=O)NCCO)cc1N1CCC2(CC1)CC2)c1ccc([N+](=O)[O-])c(N2CCC(F)(F)CC2)c1` [Compound 49], for which the IC50 was in the range of 100 to 500 nM.
As for `C[C@@H]1CN(c2cc(C(=O)Nc3ccc(S(=O)(=O)NCCO)cc3N3CCC4(CC3)CC4)ccc2[N+](=O)[O-])CCO1` [Compound 50], the IC50 is 100 to 500 nM.
In the case of `C[C@H]1CN(c2cc(C(=O)Nc3ccc(S(=O)(=O)NCCO)cc3N3CCC4(CC3)CC4)ccc2[N+](=O)[O-])CCO1` [Compound 51], the IC50 lay in the range of 100 to 500 nM.
The result for `O=C(Nc1ccc(S(=O)(=O)NCCO)cc1N1CCC2(CC1)CC2)c1ccc([N+](=O)[O-])c(N2CC(F)(F)C2)c1` [Compound 52] reads 100 to 500 nM; that for `O=C(Nc1ccc(S(=O)(=O)NCCO)cc1N1CCC2(CC1)CC2)c1ccc([N+](=O)[O-])c(OCCC(F)(F)F)c1` [Compound 53], 100 to 500 nM.
The figure for `O=C(Nc1ccc(S(=O)(=O)NCCO)cc1N1CCC2(CC1)CC2)c1ccc([N+](=O)[O-])c(N2CCC3(CC3)C2)c1` [Compound 54] is 100 to 500 nM; for `O=C(Nc1ccc(S(=O)(=O)NCCO)cc1N1CCC2(CC1)CC2)c1ccc([N+](=O)[O-])c(OC2CCC2)c1` [Compound 55] it is 100 to 500 nM; for `CC1(F)CCN(c2cc(C(=O)Nc3ccc(S(=O)(=O)NCCO)cc3N3CCC4(CC3)CC4)ccc2[N+](=O)[O-])C1` (stereo not drawn) [Compound 56] it is 100 to 500 nM.
